Test results published in patent US7314616B1, “Additive containing an anti-fungal amount of a salt of formic acid” (priority 2003, dated 2008).

Tested on: fungi spores
Assay: inhibitory effect on the growth of fungi spores
Type: cell-based

For `COC1=CC(=O)O[C@@H](CCc2ccc3c(c2)OCO3)C1` [dihydromethysticin], the “inhibitory effect on the growth of fungi spores” value (“inhibitory effect on the growth” for short) was “exhibit inhibitory effect”.
For `COC1=CC(=O)O[C@@H](CCc2ccccc2)C1` [diydrokawain], the “inhibitory effect on the growth” value was “exhibit inhibitory effect”.
For `COC1=CC(=O)O[C@@H](/C=C/c2ccccc2)C1` [kawain], the “inhibitory effect on the growth” value was “exhibit inhibitory effect”.
